Measurements published in patent US10011571B2, “Preparation method for aromatic heterocyclic compound used as selective JAK3 and/or JAK1 kinase inhibitor and application of aromatic heterocyclic compound” (SHENZHEN CHIPSCREEN BIOSCIENCES, LTD., priority 2014, dated 2018).

How the values were obtained:
JAK2 = JAK2 (Homo sapiens (Human), UniProt O60674); assay: Z'-LYTE enzymatic activity detection, JAK2; assay type: biochemical; conditions: test compound 30 nM; for inhibition at 0.03 µM: read-out: JAK2 % inhibitory rate @30 nM
Sequence of JAK2 (O60674 whole entry): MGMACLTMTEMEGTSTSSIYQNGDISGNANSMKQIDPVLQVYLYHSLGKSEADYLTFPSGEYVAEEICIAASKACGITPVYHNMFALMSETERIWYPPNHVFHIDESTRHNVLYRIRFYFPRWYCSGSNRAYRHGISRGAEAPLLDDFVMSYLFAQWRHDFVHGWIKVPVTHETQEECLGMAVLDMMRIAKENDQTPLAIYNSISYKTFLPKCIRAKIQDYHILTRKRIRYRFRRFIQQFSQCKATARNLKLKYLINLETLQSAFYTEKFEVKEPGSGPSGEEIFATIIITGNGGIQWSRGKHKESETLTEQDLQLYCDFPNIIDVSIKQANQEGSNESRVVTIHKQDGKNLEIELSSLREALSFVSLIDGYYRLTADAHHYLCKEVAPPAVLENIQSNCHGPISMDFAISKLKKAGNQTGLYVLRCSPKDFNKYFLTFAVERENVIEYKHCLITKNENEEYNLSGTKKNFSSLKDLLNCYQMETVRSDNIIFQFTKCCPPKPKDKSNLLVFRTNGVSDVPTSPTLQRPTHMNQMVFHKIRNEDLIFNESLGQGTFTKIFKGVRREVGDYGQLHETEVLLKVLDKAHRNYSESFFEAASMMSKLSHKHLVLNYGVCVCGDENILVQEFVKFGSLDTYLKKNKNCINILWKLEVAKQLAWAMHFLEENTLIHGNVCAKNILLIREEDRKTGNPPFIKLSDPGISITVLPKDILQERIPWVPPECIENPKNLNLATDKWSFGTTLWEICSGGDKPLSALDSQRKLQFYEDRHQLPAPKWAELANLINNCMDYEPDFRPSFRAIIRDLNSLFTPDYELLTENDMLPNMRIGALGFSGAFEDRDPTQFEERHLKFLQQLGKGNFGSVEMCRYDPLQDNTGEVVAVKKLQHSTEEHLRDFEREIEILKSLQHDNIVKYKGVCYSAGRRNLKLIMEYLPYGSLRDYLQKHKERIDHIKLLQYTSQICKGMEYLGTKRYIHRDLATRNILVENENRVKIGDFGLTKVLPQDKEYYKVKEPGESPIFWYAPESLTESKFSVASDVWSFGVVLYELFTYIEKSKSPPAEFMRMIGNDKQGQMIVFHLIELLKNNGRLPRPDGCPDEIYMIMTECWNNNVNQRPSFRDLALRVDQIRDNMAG
Procedure: (§1) The basic principle of in vitro enzymatic activity assay is based on the difference between the intensities of fluorescence signals generated at different wavelengths (445 nm and 520 nm) from the phosphorylated substrate and non-phosphorylated substrate, in which the specific fluorescence-labeled substrate is phosphorylated by the kinase. When different test compounds are added, the inhibition of kinase activity is represented as the different degrees of substrate phosphorylation, and thus as the different intensities of fluorescence signal, based on which the inhibitory activity of the compound on the kinase can be calculated. Basic detection principle is illustrated in FIG. 1.
(§2) In an enzymatic inhibitory activity detection, GST-labeled human recombinant JAK kinases, including JAK1/PV4774, JAK2/PV4210, JAK3/PV3855, TYK2/PV4790 and their corresponding specific substrates, including Tyr6 (Z′-LYTE® Kinase Assay Kit-Tyrosine 6 Peptide, JAK1/PV4122), Tyr4 (Z′-LYTE® Kinase Assay Kit-Tyrosine 4 Peptide, JAK2/PV3193), Tyr4 (Z′-LYTE® Kinase Assay Kit-Tyrosine 4 Peptide, JAK3/PV3193), Tyr3 (Z′-LYTE® Kinase Assay Kit-[…], TYK2/PV3192) are used. In all tests, development reagent A (PV3297) was used as the test agent. All materials mentioned above were purchased from Invitrogen.
(§3) (1) Preparation: kinase reaction buffer (working solution) is prepared according to the instruction; a concentration gradient of the test compound is prepared by dilution using the kinase reaction buffer (the highest compound concentration is 10 μM for JAK1, JAK2, and TYK2 detection, and 1 μM for JAK3 detection, respectively).
(§4) (2) 10 μl of reaction system, comprising 2.5 μL test compound, 5 μL kinase reaction buffer and 2.5 μL ATP solution (provided by the kit), is mixed and reaction is performed at room temperature for 1 h.
(§5) (3) Controls, including a solvent control without the test compound, a negative control without ATP and a positive control with the phosphorylated substrate, are tested together with the detection. All tests are carried out in triplicate.
(§6) (4) After the enzymatic reaction, 5 μL pre-formulated development buffer is added, and reaction is performed at room temperature for 1 h. Subsequently, the reaction is terminated by adding 5 μL stop buffer.
(§7) (5) The fluorescence signal in each well is detected by an Ascent Fluoroskan FL reader (Thermo Labsystems) at an excitation wavelength of 400 nm, and emission wavelengths of 445 nm and 520 nm. The proportion of substrate phosphorylation is obtained by reference to the fluorescence signal intensity C445/F520.
(§8) (6) The enzymatic inhibitory rate of the test compound can be calculated based on the following equation: Inhibitory rate (%)=1−the proportion of substrate phosphorylation in the detection well/the proportion of substrate phosphorylation in the solvent control well. The half-inhibitory concentration (IC50) can be calculated using an IC50 calculator based on the inhibitory rates of phosphorylation for the test compounds at different concentration gradients.
(§9) Based on the above method, the compounds described herein are enzymatically evaluated in vitro for JAKs (the concentration of the test compound is 30 nM for JAK3 and JAK2 test, and 300 nM for JAK1 test) using Xeljanz (tofacitinib citrate) as the positive control.

HeLa cells = assay: Cell growth activity assay (MTS), HeLa cell model; assay type: cell-based, human; set-up: activity: dose or concentration left out as unconfirmed; conditions: Homo sapiens, HeLa, 72 h, read-out: HeLa % growth rate
Source text: (§10) MTS assay is a routine method for cell toxicity detection. The basic principle is based on the capacity of dehydrogenase in the mitochondria of living cells to reduce a novel yellow […] MTS to formazan, so that the amount of living cells is proportional to the amount of formazan product by detecting the absorbance at 490 nm (OD), thereby speculating the amount of living cells according to the OD value, and understanding the capacity of the test compound to inhibit the growth of cells or to kill the cells.
HeLa cell is a human cervical cancer cell line, and belongs to epithelial tumor cell line; HUVEC is a human umbilical vein endothelial cell, and belongs to primary endothelial cell; both types of cells express all subtypes except for JAK3.
The change of JAK kinase activity has no significant influence on other cell types except for the immune cells, and both cell models mentioned above are mainly used to evaluate whether there are any other kinase targets besides JAK kinases or there are nonselective cell toxicities.
In this experiment, a cultured cell model is incubated with the test compounds at different concentrations for a specific duration. The effect of the treatment by the test compound on the growth of cells is detected using MTS assay.
(§11) MTS is performed according to routine procedure in a 96-well plate.
(§12) The model cells are inoculated into each well of the 96-well plate at an appropriate concentration (about 5000 cells/well). After 24 h, the test compounds are added at different concentration gradients (the highest final concentration is 40 μM). A solvent control (DMSO) and a negative control are also performed at the same time. Each experiment is repeated for 3 times. The cells are detected after cultured for another 72 h.
After all culture medium is aspirated out of the well, 100 μL fresh medium and 20 μL pre-formulated mixture of MTS and PMS (in a ratio of 20:1) are added to each well. After incubation at 37° C. for 2 h, it is then detected by a microplate reader (490 nm).
The cell growth inhibitory rate and GI50 of the test compound are calculated as above.
Based on the above method, cytological evaluation is performed to the compounds described herein (for the detection of CTLL-2 cell, the concentration of the test compound is 300 nM; […]).

JAK3 = JAK3 (Homo sapiens (Human), UniProt P52333); assay: Z'-LYTE enzymatic activity detection, JAK3; assay type: biochemical; conditions: test compound 30 nM; for inhibition at 0.03 µM: read-out: JAK3 % inhibitory rate @30 nM
Sequence of JAK3 (P52333 whole entry): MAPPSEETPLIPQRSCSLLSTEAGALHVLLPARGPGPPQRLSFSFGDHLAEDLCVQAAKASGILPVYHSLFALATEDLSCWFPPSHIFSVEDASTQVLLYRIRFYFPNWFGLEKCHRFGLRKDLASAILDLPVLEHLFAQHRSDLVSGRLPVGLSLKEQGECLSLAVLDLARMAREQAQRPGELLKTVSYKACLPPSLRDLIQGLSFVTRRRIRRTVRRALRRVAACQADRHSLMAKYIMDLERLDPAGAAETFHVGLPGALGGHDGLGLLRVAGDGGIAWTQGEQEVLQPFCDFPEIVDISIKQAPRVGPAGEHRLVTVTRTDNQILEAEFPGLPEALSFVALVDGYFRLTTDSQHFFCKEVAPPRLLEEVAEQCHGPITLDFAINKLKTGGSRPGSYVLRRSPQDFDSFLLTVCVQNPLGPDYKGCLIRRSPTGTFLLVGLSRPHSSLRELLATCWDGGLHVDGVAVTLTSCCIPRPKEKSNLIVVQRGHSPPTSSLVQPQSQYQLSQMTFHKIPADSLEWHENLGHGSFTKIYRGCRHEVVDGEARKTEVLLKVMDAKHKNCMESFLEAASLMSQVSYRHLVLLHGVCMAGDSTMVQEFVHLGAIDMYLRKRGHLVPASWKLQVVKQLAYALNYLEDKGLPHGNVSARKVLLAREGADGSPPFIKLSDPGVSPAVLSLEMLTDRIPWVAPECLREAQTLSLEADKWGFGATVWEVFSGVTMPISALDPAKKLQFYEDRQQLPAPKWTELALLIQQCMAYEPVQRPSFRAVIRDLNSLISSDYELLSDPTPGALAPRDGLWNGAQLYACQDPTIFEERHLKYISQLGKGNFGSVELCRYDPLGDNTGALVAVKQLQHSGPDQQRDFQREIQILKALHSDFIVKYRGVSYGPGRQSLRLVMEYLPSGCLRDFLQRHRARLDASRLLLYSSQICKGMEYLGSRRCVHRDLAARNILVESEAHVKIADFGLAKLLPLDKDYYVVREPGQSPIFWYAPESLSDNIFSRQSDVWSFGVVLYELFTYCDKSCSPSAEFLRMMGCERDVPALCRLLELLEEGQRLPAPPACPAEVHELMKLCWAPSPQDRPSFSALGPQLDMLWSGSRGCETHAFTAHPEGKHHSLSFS
Procedure: as §1, §2, §3, §4, §5, §6, §7, §8, §9

CTLL-2 cells = assay: Cell growth activity assay (MTS), CTLL-2 cell model; assay type: cell-based, mouse; conditions: Mus musculus, CTLL-2, 300 nM, 24 h, read-out: CTLL-2 % growth rate @300 nM
Source text: as §10
In this experiment, mouse T-cell line CTLL-2 was used. The proliferation and growth of this cell line strongly depend on IL-2, and it is commonly used to evaluate the active titer of exogenous IL-2. By inhibiting the activity of kinase JAK1/3, the proliferation of CTLL-2 can be inhibited under in vitro culture. The activation and proliferation of T-cell is also important pathological characteristics for various immunological diseases. Thus, this model is also pathologically related.
By comparing the change of absorbance generated by the cells treated by the test compounds using MTS assay, the growth inhibitory activity of the test compounds on the model cells can be realized, and thereby potential inhibitory activity of the compounds on JAK1/3 pathway can be evaluated.
as §11
as §12, with “20,000” for “5000”, “highest” for “highest final”, “of 10” for “is 40”, “24” for “72”
CTLL-2 is a suspended cell. After incubation, 20 μL pre-formulated mixture of MTS and PMS (in a ratio of 20:1) is directly added to each well. After incubation at 37° C. for 2 h, it is then detected by a microplate reader (490 nm).
The effect of the test compound on cell growth is calculated by comparing the change of OD values between the test well and the solvent control well, after subtracting the background of the negative control. For the test compounds at different concentration gradients, the inhibitory rates on the growth of model cells and their half-growth inhibitory concentrations (GI50) are each calculated.
Based on the above method, cytological evaluation is performed to the compounds described herein (for the detection of CTLL-2 cell, the concentration of the test compound is 300 nM; for the detection of HeLa and HUVEC cell, the concentration of the test compound is […]).

JAK1 = JAK1 (Homo sapiens (Human), UniProt P23458); assay: Z'-LYTE enzymatic activity detection, JAK1; assay type: biochemical; conditions: test compound 300 nM; for inhibition at 0.3 µM: read-out: JAK1 % inhibitory rate @300 nM
Sequence of JAK1 (P23458 whole entry): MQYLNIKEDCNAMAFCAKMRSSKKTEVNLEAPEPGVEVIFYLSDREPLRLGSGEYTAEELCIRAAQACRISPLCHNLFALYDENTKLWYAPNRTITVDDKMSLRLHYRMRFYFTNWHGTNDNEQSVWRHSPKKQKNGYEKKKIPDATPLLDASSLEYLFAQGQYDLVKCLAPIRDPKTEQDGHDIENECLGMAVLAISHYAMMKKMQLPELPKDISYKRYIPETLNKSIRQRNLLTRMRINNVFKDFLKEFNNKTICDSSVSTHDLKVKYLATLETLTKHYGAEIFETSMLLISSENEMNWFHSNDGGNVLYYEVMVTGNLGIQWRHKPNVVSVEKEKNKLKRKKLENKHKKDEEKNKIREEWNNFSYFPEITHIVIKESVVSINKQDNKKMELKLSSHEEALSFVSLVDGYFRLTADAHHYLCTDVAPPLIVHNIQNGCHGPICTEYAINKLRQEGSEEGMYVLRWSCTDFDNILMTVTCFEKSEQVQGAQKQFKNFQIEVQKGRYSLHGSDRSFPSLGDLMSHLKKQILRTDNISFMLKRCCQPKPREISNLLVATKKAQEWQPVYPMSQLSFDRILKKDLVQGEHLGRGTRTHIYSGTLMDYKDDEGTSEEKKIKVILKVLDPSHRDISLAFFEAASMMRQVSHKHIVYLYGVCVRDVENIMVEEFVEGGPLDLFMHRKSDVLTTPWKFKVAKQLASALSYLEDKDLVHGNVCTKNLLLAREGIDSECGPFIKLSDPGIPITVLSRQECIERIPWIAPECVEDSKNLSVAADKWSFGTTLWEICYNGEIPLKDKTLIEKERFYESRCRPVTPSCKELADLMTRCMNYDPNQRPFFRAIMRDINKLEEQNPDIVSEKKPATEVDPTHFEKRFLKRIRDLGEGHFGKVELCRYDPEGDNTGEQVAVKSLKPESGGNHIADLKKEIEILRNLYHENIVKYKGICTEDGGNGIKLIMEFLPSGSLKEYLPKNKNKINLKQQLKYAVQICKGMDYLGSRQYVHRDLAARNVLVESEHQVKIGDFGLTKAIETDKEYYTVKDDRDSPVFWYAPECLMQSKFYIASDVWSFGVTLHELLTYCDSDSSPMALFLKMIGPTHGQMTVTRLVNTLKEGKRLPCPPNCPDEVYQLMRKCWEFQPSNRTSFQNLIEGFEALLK
Procedure: as §1, §2, §3, §4, §5, §6, §7, §8, §9

inhibition at 0.03 µM (JAK2) [%]	JAK3 RV (ratio between the inhibitory rate of the test compound and that of Xeljanz) (JAK3)	inhibition at 0.03 µM (JAK3) [%]	JAK1 RV (ratio between the inhibitory rate of the test compound and that of Xeljanz) (JAK1)	inhibition at 0.3 µM (JAK1) [%]	JAK2 RV (ratio between the inhibitory rate of the test compound and that of Xeljanz) (JAK2)	SMILES	activity (HeLa cells) [%]	activity at 0.3 µM (CTLL-2 cells) [%]
0	0.78	105	0.13	13	–	C=CC(=O)N(C)c1cc(Nc2ncc(Cl)c(NCCCNC(=O)Cc3ccc(C#N)cc3)n2)ccc1F [Example 64, N-(5-(5-chloro-4-(3-(2-(4-cyanophenyl)acetamino)propylamino)pyrimidinyl-2-amino)-2-fluorophenyl)-N-methylacrylamide]	78	37
0	0.76	103	0.15	15	–	C=CC(=O)N(C)c1cc(Nc2ncc(Cl)c(NCCCNS(=O)(=O)c3ccc(C#N)cc3)n2)ccc1F [Example 68, 4-cyano-N-(3-(5-chloro-2-(4-fluoro-3-(N-methylacrylamido)phenylamino)pyrimidinyl-4-amino)propyl)benzenesulfonamide]	110	69
1	0.70	95	0.70	7	0.01	C=CC(=O)N(C)c1cc(Nc2ncc(Cl)c(OCCCNC(=O)c3ccc(C#N)cc3)n2)ccc1F [Example 71, N-(3-(5-chloro-2-(4-fluoro-3-(N-methylacrylamido)phenylamino)pyrimidinyl-4-oxo)propyl)-4-cyano-benzamide]	112	70
0	0.90	121	0.14	14	–	C=CC(=O)N(C)c1cc(Nc2ncc(Cl)c(NCCCNC(=O)c3ccncc3)n2)ccc1F [Example 75, N-(3-(5-chloro-2-(4-fluoro-3-(N-methylacrylamido)phenylamino)pyrimidinyl-4-amino)propyl)isonicotinamide]	102	49
0	0.96	80	0.22	19	–	C=CC(=O)N(C)c1cc(Nc2ncc(Cl)c(NCCCNC(=O)c3ccc(CC)cc3)n2)ccc1F [Example 79, N-(3-(5-chloro-2-(4-fluoro-3-(N-methylacrylamido)phenylamino)pyrimidinyl-4-amino)propyl)-4-ethylbenzamide]	78	3
2	0.92	76	0.42	36	0.04	C=CC(=O)N(C)c1cc(Nc2ncc(Cl)c(NCCCNC(=O)c3ccc(C)cc3)n2)ccc1F [Example 83, N-(3-(5-chloro-2-(4-fluoro-3-(N-methylacrylamido)phenylamino)pyrimidinyl-4-amino)propyl)-4-methylbenzamide]	70	4
0	0.99	82	0.51	43	–	C=CC(=O)N(C)c1cc(Nc2ncc(Cl)c(NCCCNC(=O)c3ccccc3)n2)ccc1F [Example 87, N-(3-(5-chloro-2-(4-fluoro-3-(N-methylacrylamido)phenylamino)pyrimidinyl-4-amino)propyl)benzamide]	22	3
0	0.99	82	0.24	20	–	C=CC(=O)N(C)c1cc(Nc2ncc(Cl)c(NCCCNC(=O)c3cccc(C(F)(F)F)c3)n2)ccc1F [Example 91, N-(3-(5-chloro-2-(4-fluoro-3-(N-methylacrylamido)phenylamino)pyrimidinyl-4-amino)propyl)-3-trifluoromethylbenzamide]	40	2
